Assay in all cases: DTP human tumour cell line panel, 48 h
Assay [1] has as its system 786-0 renal.
In assay [2] the test system is CAKI-1 renal.
In assay [3] the test system is COLO 205 colon.
Assay [4] has as its system NCI-H226 lung.
In assay [5] the test system is NCI/ADR-RES ovarian.
For assay [6], the system named is SK-MEL-5 melanoma.
The subject of assay [7] is SR leukemia.
Assay [8] has as its system UACC-62 melanoma.
Assay [9] deals with UO-31 renal.
Assay [10] has as its system NCI-H522 lung.

The structures appear in SMILES notation.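 Protocol summary: plate cells (96-well), add compound at 5 concentrations, incubate 48 h, interpolate endpoints linearly. GI50 is the concentration that inhibits growth by half. TGI: total growth inhibition.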 Bounds are passed on as bounds.

In general, TGI refers to the concentration giving total growth inhibition. As for `CCN1CCCn2c(=O)[nH]c3cc(Br)cc1c32`, the TGI in assay [1], in assay [2], in assay [3], in assay [4], in [5] and in assay [6] was above 100 µM throughout. The TGI in [7], in assay [8] and in [9] was above 100 µM throughout.

For `NC1c2c(Cl)sc(Cl)c2C(=O)C1O` (stereo not drawn), the TGI was above 100 µM in [1]; 47.4 µM in assay [2]; 44.4 µM in [3]; above 100 µM in assay [4]; 41.6 µM in assay [10]; 90.6 µM in [5]. The TGI in assay [6] is 86.6 µM; in [8] it was 43.7 µM; in assay [9], above 100 µM.

With `COc1ccc(NC(=O)CC(=O)N2N=C(N(c3ccccc3)c3ccccc3)CC2c2ccccc2)cc1` (stereo not drawn), the TGI in [1], in [2], in [3], in [4], in assay [10] and in assay [5] was above 100 µM in each case. Further, the TGI in assay [8] and in [9] was above 100 µM throughout.

Regarding `CC(=Nc1cc(Cl)cc(Cl)c1)c1ccncc1`, the TGI in assay [1], in assay [2], in assay [3], in assay [4], in [10] and in [5] was above 100 µM each time. Also, the TGI in assay [6], in assay [8] and in assay [9] was above 100 µM each time.

As to `N#Cc1c(N2CCN(c3ccc([N+](=O)[O-])cc3)CC2)[n+](=O)c2ccc(-c3ccc([N+](=O)[O-])cc3)cc2n1[O-]`, the TGI in assay [1], in [2], in assay [3], in assay [4], in assay [10] and in [5] was above 100 µM in each case. Besides, the results for the TGI in assay [6], in assay [8] and in assay [9] were 17.5 µM, above 100 µM and above 100 µM, respectively.

By GI50 is commonly meant the concentration giving 50% growth inhibition. Consider `CS(=O)(=O)[O-].CS(=O)(=O)[O-].NC1CCCCC1N.[Pt+4]` (stereo not drawn), for which the GI50 in [2] is 41.8 µM; in assay [3], 35.9 µM; in [4], 39.2 µM; in [10], above 71.1 µM; in assay [5], above 55.2 µM; in assay [6], 48.4 µM. Also, the GI50 was above 100 µM in assay [8] and above 96.5 µM in assay [9]. In addition, the TGI in assay [2], in assay [3], in assay [4], in assay [10], in assay [5] and in [6] was above 100 µM in each case. Further, the TGI in [8] and in [9] was above 100 µM in each case.

Consider `C=CCc1ccccc1C1CC2(C(=O)OC)OC1C(C(=O)OC)=C2C(=O)OC` (stereo not drawn), for which the TGI in [1], in assay [2], in [3], in assay [4], in assay [5] and in [6] was above 10 µM each time. Further, the TGI in [7], in [8] and in [9] was above 10 µM throughout.

Turning to `CCN(CC)/[N+]([O-])=N/O`, the TGI in assay [2], in assay [4], in assay [10], in assay [6], in assay [7] and in assay [8] was above 100 µM each time. In assay [9], this molecule returned a TGI above 100 µM.

As to `CC1CN=C(c2ccc(CN3CCC(C4CCN(Cc5ccc(C6=NCC(C)N6)cc5)CC4)CC3)cc2)N1` (stereo not drawn), the TGI was 34.1 µM in [1]; above 100 µM in assay [2]; 41.3 µM in assay [3]; 33.7 µM in [10]; above 100 µM in assay [5]; above 100 µM in assay [6]. Besides, the TGI in assay [8] stood at 41.7 µM; in assay [9] it was 58.4 µM.

Consider `O=C(NCCCCCCO)c1cccc2cc3ccccc3nc12`, for which the TGI was 36.2 µM in [1]; 36.1 µM in [2]; 25.3 µM in assay [3]; 35.3 µM in [4]; 28.8 µM in [10]; above 100 µM in [5]. Further, the results for the TGI in assay [6] and in assay [8] were 32.9 µM and 35.2 µM, respectively.

As to `C=C(C)[C@@H]1CC[C@]2(CO)CC[C@]3(C)[C@H](CC[C@@H]4[C@@](C)(CCCN)[C@H](C(=C)C)CC[C@]43C)[C@@H]12`, the GI50 was 1.79 µM in assay [2]; 1.63 µM in assay [3]; 0.475 µM in assay [7]; 1.71 µM in [8]; 1.31 µM in [9]. Moreover, the TGI in assay [2] was determined as 3.21 µM; in [3] it was 3.34 µM; in [7], 2.14 µM; in [8], 3.09 µM; in assay [9], 2.58 µM.

For `COc1ccccc1NC(=S)N/N=C/c1ccccn1`, the TGI is 13 µM in assay [1]; 16.8 µM in assay [2]; above 16 µM in assay [3]; above 35.9 µM in [4]; 10.9 µM in assay [10]; 0.237 µM in assay [5]. Besides, the TGI in [6] stood at 2.71 µM; in assay [8] it was 3.75 µM; in assay [9], 24.4 µM.

Regarding `COc1cc2oc(-c3ccc4c(c3)OCO4)c(OC)c(=O)c2c(O)c1OC`, the TGI in assay [1], in assay [2], in [3], in assay [4], in assay [10] and in assay [5] was above 50 µM throughout. Further, the TGI in assay [6], in assay [8] and in assay [9] was above 50 µM each time.

`COC(=O)[C@@H]1C=C[C@H](NC(C)=O)C1`: the TGI in assay [2], in [3], in assay [4], in assay [5], in assay [6] and in [7] was above 100 µM each time. In addition, the TGI in [8] and in [9] was above 100 µM each time.
